According to patent US20250368714A1, “TREATMENT OF CANCER” (Immutep S.A.S., priority 2022, published 2025):
Like-named read-outs stand apart in the source and are kept apart here.

Legend:
[1] = tested on: Patients with HR+ HER2-Neg/Low after Failure of ET Based Therapy; details: No prior CDK4/6; cited from earlier work
[2] = tested on: HER2 negative hormone receptor-positive metastatic breast cancer patients; test: AIPAC Phase IIb study: paclitaxel+IMP321 vs paclitaxel+placebo, overall survival; type: in vivo, human; details: AIPAC paclitaxel plus placebo group
Method: A multicentre, placebo-controlled, double-blind, 1:1 randomised Phase IIb study in female HER2 negative hormone receptor-positive metastatic breast cancer patients was conducted. The study comprised two stages: • stage 1 which was an open-label, safety run-in stage consisting of cohorts 1 and 2 to confirm the recommended Phase II dose (RPTD) of IMP321 in combination with paclitaxel; and • stage 2 which was a placebo-controlled, double-blind randomisation stage, paclitaxel+IMP321 at the RPTD compared to paclitaxel+placebo.
The chemo-immunotherapy phase consisted of 6 cycles of 4 weeks. Patients received weekly paclitaxel at Days 1, 8 and 15 with adjunctive treatment of study agent (IMP321) on Days 2 and 16 of each 4-week cycle. After completion of the 6-cycle chemo-immunotherapy phase, responding or stable patients received study agent (IMP321) every 4 weeks during the maintenance phase for an additional period of up to 12 injections.
The chemo-immunotherapy phase consisted of 6 cycles of 4 weeks. Patients received weekly paclitaxel at Days 1, 8 and 15 with adjunctive treatment of study agent (placebo) on Days 2 and 16 of each 4-week cycle.
After completion of the 6-cycle chemo-immunotherapy phase, responding or stable patients received study agent (placebo) every 4 weeks during the maintenance phase for an additional period of up to 12 injections. […]

[3] = tested on: Patients with HR+ HER2-Neg/Low after Failure of ET Based Therapy; test: Efficacy of single agent chemotherapy after failure of ET based therapy; type: in vivo, human; details: Prior CDK4/6
Text: Efficacy of Single Agent Chemotherapy for Patients with HR^+ HER2-Neg/Low after Failure of ET Based Therapy

[4] = tested on: unresectable locally advanced or metastatic PD-L1 positive TNBC; details: PD-L1 inhibitor plus paclitaxel; cited from earlier work
[5] = tested on: locally recurrent unresectable or metastatic TNBC; details: patients with CPS of 10 or more; cut-off Dec. 11, 2019; placebo-chemotherapy 5.6; cited from earlier work

Compound: CCCCCOC(=O)Nc1nc(=O)n([C@@H]2O[C@H](C)[C@@H](O)[C@H]2O)cc1F [Capecitabine, capecitabine]
- ORR (%) [1]: 19-30%
- OS (months) [1]: 9.3-18 months
- PFS (months) [1]: 2.8-5.9 months

Compound: CC(=O)O[C@H]1C(=O)[C@@]2(C)[C@H]([C@H](OC(=O)c3ccccc3)[C@]3(O)C[C@H](OC(=O)[C@H](O)[C@@H](NC(=O)c4ccccc4)c4ccccc4)C(C)=C1C3(C)C)[C@]1(OC(C)=O)CO[C@@H]1C[C@@H]2O [Paclitaxel, paclitaxel]
- OS ([2]; no prior CDK4/6 therapy): 20.4 months
- median OS ([2]; patients pre-treated with CDK4/6): 14.9 months
- ORR (%) [1]: 21-51%
- OS (months) [1]: 20.4-25.8 months
- PFS (months) [1]: 5.9-8.8 months
- ORR (%) [3]: 36%
- OS (months) [3]: 14.9 months
- PFS (months) [3]: 6.7 months

Compound: atezolizumab: PD-L1 inhibitor tested plus paclitaxel in IMpassion131
- PFS over paclitaxel alone [4]: did not demonstrate a statistically significant improvement in PFS

Compound: pembrolizumab-chemotherapy: pembrolizumab in combination with chemotherapy (paclitaxel, nab-paclitaxel, or carboplatin-gemcitabine), KEYNOTE-355
- median PFS [5]: 9.7 months
